Experimental data reported in patent US20230114728A1 (Venatorx Pharmaceuticals, Inc., priority 2019, published 2023).
Values after ≈ are worked out from the molar mass of the structure shown.

Tests used:
Assay in all cases: Broth microdilution MIC in CAMHB
Type in all cases: cell-based
A. baumannii ATCC 19606 = conditions: Acinetobacter baumannii, ATCC19606; MHB; read-out: Minimum Inhibitory Concentration, A. baumannii ATCC 19606
Procedure, shortened: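 Colonies from cation-adjusted Mueller Hinton agar are grown in broth (3-5 h, 37° C), adjusted by OD600, and added at 2-8×10^5 CFU/mL to 2-fold compound dilutions. After 16-20 h at 37° C, the lowest concentration without growth is taken as MIC.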

E. coli 901C = conditions: Escherichia coli; E. coli 901C (hyper-permeable); MHB; read-out: Minimum Inhibitory Concentration, E. coli 901C
Procedure, shortened: (§1)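 MIC, read by eye, is the lowest compound concentration giving no bacterial growth after 16-20 h at 37° C. Test compounds are serially diluted 2-fold in CAMHB and seeded with 2-8×10^5 CFU/mL of bacteria taken from a 3-5 h shaking culture, following CLSI methods.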

E. coli AG100A = conditions: Escherichia coli, read-out: Minimum Inhibitory Concentration, E. coli AG100A
Procedure, shortened: as §1

E. coli AG100 = conditions: Escherichia coli; E. coli AG100 (wild-type parent); MHB; read-out: Minimum Inhibitory Concentration, E. coli AG100
Procedure, shortened: as §1

E. coli ATCC 25922 = conditions: Escherichia coli, ATCC25922; E. coli ATCC 25922; MHB; read-out: Minimum Inhibitory Concentration, E. coli 25922
Procedure, shortened: as §1

E. coli D22 = conditions: Escherichia coli; E. coli D22 (hyper-permeable); MHB; read-out: Minimum Inhibitory Concentration, E. coli D22
Procedure, shortened: as §1

[1] = tested on: K. pneumoniae 848844 producing SHV-11 and KPC-2; conditions: Klebsiella pneumoniae, read-out: Minimum Inhibitory Concentration, K. pneumoniae 848844
Procedure, shortened: as §1

[2] = tested on: K. pneumoniae SI-117 producing VIM-1; conditions: Klebsiella pneumoniae, read-out: Minimum Inhibitory Concentration, K. pneumoniae SI-117
Procedure, shortened: as §1

[3] = tested on: K. pneumoniae UMM producing SHV-5 and KPC-2; conditions: Klebsiella pneumoniae, read-out: Minimum Inhibitory Concentration, K. pneumoniae UMM
Procedure, shortened: as §1

[4] = tested on: P. aeruginosa (ΔmexAB-oprM); conditions: Pseudomonas aeruginosa, read-out: Minimum Inhibitory Concentration, P. aeruginosa ΔmexAB-OprM
Procedure, shortened: as §1

P. aeruginosa ATCC 27853 = conditions: Pseudomonas aeruginosa, ATCC27853; MHB; read-out: Minimum Inhibitory Concentration, P. aeruginosa ATCC 27853
Procedure, shortened: as §1

P. aeruginosa ATCC 35151 = conditions: Pseudomonas aeruginosa, ATCC35151; MHB; hyper-permeable strain; read-out: Minimum Inhibitory Concentration, P. aeruginosa ATCC 35151
Procedure, shortened: as §1

CCN1CCN(C(=O)N[C@@H](C(=O)N[C@H]2Cc3cccc(C(=O)O)c3OB2O)c2ccc(C(=O)O)cc2O)C(=O)C1=O (single isomer, unassigned) [Example 144]
MIC (A. baumannii ATCC 19606): 32 to 64 µg/mL (≈ 56.3 to 113 µM) | MIC (E. coli 901C): < 0.25 µg/mL | MIC (E. coli AG100A): 8 to 16 µg/mL (≈ 14.1 to 28.2 µM) | MIC (E. coli AG100): 32 to 64 µg/mL (≈ 56.3 to 113 µM) | MIC (E. coli ATCC 25922): 32 to 64 µg/mL (≈ 56.3 to 113 µM) | MIC (E. coli D22): 2 to 4 µg/mL (≈ 3.52 to 7.04 µM) | MIC [1]: > 128 µg/mL | MIC [2]: > 128 µg/mL | MIC [3]: 32 to 64 µg/mL (≈ 56.3 to 113 µM) | MIC [4]: 8 to 16 µg/mL (≈ 14.1 to 28.2 µM) | MIC (P. aeruginosa ATCC 27853): > 128 µg/mL | MIC (P. aeruginosa ATCC 35151): 0.5 to 1 µg/mL (≈ 0.88 to 1.76 µM)

NCCN1CCN(C(=O)N[C@H](C(=O)N[C@H]2Cc3cccc(C(=O)O)c3OB2O)c2ccc(O)c(F)c2F)C(=O)C1=O (single isomer, unassigned) [Example 169]
MIC (A. baumannii ATCC 19606): > 128 µg/mL | MIC (E. coli 901C): 2 to 4 µg/mL (≈ 3.48 to 6.95 µM) | MIC (E. coli AG100A): 32 to 64 µg/mL (≈ 55.6 to 111 µM) | MIC (E. coli AG100): 32 to 64 µg/mL (≈ 55.6 to 111 µM) | MIC (E. coli ATCC 25922): 8 to 16 µg/mL (≈ 13.9 to 27.8 µM) | MIC (E. coli D22): 32 to 64 µg/mL (≈ 55.6 to 111 µM) | MIC [1]: > 128 µg/mL | MIC [2]: > 128 µg/mL | MIC [3]: > 128 µg/mL | MIC [4]: 32 to 64 µg/mL (≈ 55.6 to 111 µM) | MIC (P. aeruginosa ATCC 27853): > 128 µg/mL | MIC (P. aeruginosa ATCC 35151): 2 to 4 µg/mL (≈ 3.48 to 6.95 µM)

CCN1CCN(C(=O)N[C@@H](C(=O)N[C@H]2Cc3cccc(C(=O)O)c3OB2O)c2ccc(C(=O)O)c(F)c2)C(=O)C1=O (single isomer, unassigned) [Example 146]
MIC (A. baumannii ATCC 19606): 32 to 64 µg/mL (≈ 56.1 to 112 µM) | MIC (E. coli 901C): < 0.25 µg/mL | MIC (E. coli AG100A): 2 to 4 µg/mL (≈ 3.51 to 7.01 µM) | MIC (E. coli AG100): 32 to 64 µg/mL (≈ 56.1 to 112 µM) | MIC (E. coli ATCC 25922): 32 to 64 µg/mL (≈ 56.1 to 112 µM) | MIC (E. coli D22): 2 to 4 µg/mL (≈ 3.51 to 7.01 µM) | MIC [1]: > 128 µg/mL | MIC [2]: > 128 µg/mL | MIC [3]: 32 to 64 µg/mL (≈ 56.1 to 112 µM) | MIC [4]: 8 to 16 µg/mL (≈ 14 to 28.1 µM) | MIC (P. aeruginosa ATCC 27853): 32 to 64 µg/mL (≈ 56.1 to 112 µM) | MIC (P. aeruginosa ATCC 35151): < 0.25 µg/mL

CCN1CCN(C(=O)NC(C(=O)N[C@H]2Cc3cccc(C(=O)O)c3OB2O)c2c(F)c(F)c(O)c(F)c2F)C(=O)C1=O (stereo partly drawn) [Example 175, (3R)-3-(2-(4-ethyl-2,3-dioxopiperazine-1-carboxamido)-2-(2,3,5,6-tetrafluoro-4-hydroxyphenyl)acetamido)-2-hydroxy-3,4-dihydro-2H-benzo[e][1,2]oxaborinine-8-carboxylic acid]
MIC (A. baumannii ATCC 19606): 32 to 64 µg/mL (≈ 53.7 to 107 µM) | MIC (E. coli 901C): < 0.25 µg/mL | MIC (E. coli AG100A): 2 to 4 µg/mL (≈ 3.35 to 6.71 µM) | MIC (E. coli AG100): 8 to 16 µg/mL (≈ 13.4 to 26.8 µM) | MIC (E. coli ATCC 25922): 32 to 64 µg/mL (≈ 53.7 to 107 µM) | MIC (E. coli D22): 2 to 4 µg/mL (≈ 3.35 to 6.71 µM) | MIC [1]: > 128 µg/mL | MIC [2]: > 128 µg/mL | MIC [3]: 32 to 64 µg/mL (≈ 53.7 to 107 µM) | MIC [4]: 8 to 16 µg/mL (≈ 13.4 to 26.8 µM) | MIC (P. aeruginosa ATCC 27853): > 128 µg/mL | MIC (P. aeruginosa ATCC 35151): 0.5 to 1 µg/mL (≈ 0.839 to 1.68 µM)

CS(=O)(=O)N1CCN(C(=O)N[C@@H](C(=O)N[C@H]2Cc3cccc(C(=O)O)c3OB2O)c2c(F)cc(O)cc2F)C1=O (single isomer, unassigned) [Example 135]
MIC (A. baumannii ATCC 19606): > 128 µg/mL | MIC (E. coli 901C): < 0.25 µg/mL | MIC (E. coli AG100A): 0.5 to 1 µg/mL (≈ 0.859 to 1.72 µM) | MIC (E. coli AG100): 32 to 64 µg/mL (≈ 55 to 110 µM) | MIC (E. coli ATCC 25922): 8 to 16 µg/mL (≈ 13.7 to 27.5 µM) | MIC (E. coli D22): 2 to 4 µg/mL (≈ 3.43 to 6.87 µM) | MIC [1]: 32 to 64 µg/mL (≈ 55 to 110 µM) | MIC [2]: 32 to 64 µg/mL (≈ 55 to 110 µM) | MIC [3]: 32 to 64 µg/mL (≈ 55 to 110 µM) | MIC [4]: 32 to 64 µg/mL (≈ 55 to 110 µM) | MIC (P. aeruginosa ATCC 27853): > 128 µg/mL | MIC (P. aeruginosa ATCC 35151): 2 to 4 µg/mL (≈ 3.43 to 6.87 µM)

CCN1CCN(C(=O)N[C@H](C(=O)N[C@H]2Cc3cccc(C(=O)O)c3OB2O)c2ccc(C(=O)O)c(F)c2F)C(=O)C1=O (single isomer, unassigned) [Example 139]
MIC (A. baumannii ATCC 19606): > 128 µg/mL | MIC (E. coli 901C): < 0.25 µg/mL | MIC (E. coli AG100A): 8 to 16 µg/mL (≈ 13.6 to 27.2 µM) | MIC (E. coli AG100): 32 to 64 µg/mL (≈ 54.4 to 109 µM) | MIC (E. coli ATCC 25922): > 128 µg/mL | MIC (E. coli D22): 2 to 4 µg/mL (≈ 3.4 to 6.8 µM) | MIC [1]: > 128 µg/mL | MIC [2]: > 128 µg/mL | MIC [3]: 32 to 64 µg/mL (≈ 54.4 to 109 µM) | MIC [4]: 8 to 16 µg/mL (≈ 13.6 to 27.2 µM) | MIC (P. aeruginosa ATCC 27853): > 128 µg/mL | MIC (P. aeruginosa ATCC 35151): 0.5 to 1 µg/mL (≈ 0.85 to 1.7 µM)

NC1(CN2CCN(C(=O)N[C@@H](C(=O)N[C@H]3Cc4cccc(C(=O)O)c4OB3O)c3c(F)cc(O)cc3F)C(=O)C2=O)CC1 (single isomer, unassigned) [Example 121]
MIC (A. baumannii ATCC 19606): > 128 µg/mL | MIC (E. coli 901C): 0.5 to 1 µg/mL (≈ 0.831 to 1.66 µM) | MIC (E. coli AG100A): 2 to 4 µg/mL (≈ 3.33 to 6.65 µM) | MIC (E. coli AG100): 8 to 16 µg/mL (≈ 13.3 to 26.6 µM) | MIC (E. coli ATCC 25922): 8 to 16 µg/mL (≈ 13.3 to 26.6 µM) | MIC (E. coli D22): 2 to 4 µg/mL (≈ 3.33 to 6.65 µM) | MIC [1]: 32 to 64 µg/mL (≈ 53.2 to 106 µM) | MIC [2]: 32 to 64 µg/mL (≈ 53.2 to 106 µM) | MIC [3]: 8 to 16 µg/mL (≈ 13.3 to 26.6 µM) | MIC [4]: 8 to 16 µg/mL (≈ 13.3 to 26.6 µM) | MIC (P. aeruginosa ATCC 27853): > 128 µg/mL | MIC (P. aeruginosa ATCC 35151): 0.5 to 1 µg/mL (≈ 0.831 to 1.66 µM)

CCN1CCN(C(=O)NC(C(=O)N[C@H]2Cc3cccc(C(=O)O)c3OB2O)c2c(F)cc(NS(N)(=O)=O)cc2F)C(=O)C1=O (stereo partly drawn) [Example 176, (3R)-3-(2-(2,6-difluoro-4-(sulfamoylamino)phenyl)-2-(4-ethyl-2,3-dioxopiperazine-1-carboxamido)acetamido)-2-hydroxy-3,4-dihydro-2H-benzo[e][1,2]oxaborinine-8-carboxylic acid]
MIC (A. baumannii ATCC 19606): > 128 µg/mL | MIC (E. coli 901C): < 0.25 µg/mL | MIC (E. coli AG100A): 2 to 4 µg/mL (≈ 3.13 to 6.27 µM) | MIC (E. coli AG100): 32 to 64 µg/mL (≈ 50.1 to 100 µM) | MIC (E. coli ATCC 25922): 32 to 64 µg/mL (≈ 50.1 to 100 µM) | MIC (E. coli D22): 2 to 4 µg/mL (≈ 3.13 to 6.27 µM) | MIC [1]: > 128 µg/mL | MIC [2]: > 128 µg/mL | MIC [3]: 32 to 64 µg/mL (≈ 50.1 to 100 µM) | MIC [4]: 32 to 64 µg/mL (≈ 50.1 to 100 µM) | MIC (P. aeruginosa ATCC 27853): > 128 µg/mL | MIC (P. aeruginosa ATCC 35151): 2 to 4 µg/mL (≈ 3.13 to 6.27 µM)
